# Measured values as given in US9259000B2, “Auxin biosynthesis inhibitor” (Riken, priority 2011, dated 2016).
# How the values were obtained:
# Format in all cases: in vivo
# Tobacco = assay: Growth test, Tobacco; conditions: compound 100 μM, 7 days after transfer
# Experimental: Tobacco was cultured in a plate vertically set and using ½ MS medium containing 1.5% sucrose and 0.8% agar under continuous white light at 25° C. for 7 days. Thereafter, tobacco was transferred to a plate vertically set and using ½ MS medium containing 1.5% sucrose, 0.8% agar and the compound of the present invention (100 μM) and cultured under continuous white light at 25° C. for 7 days.
# Arabidopsis = assay: Growth recovery test with IAA, Arabidopsis; conditions: 8 days
# Experimental: Arabidopsis was cultured in a plate vertically set and using ½ MS medium containing 1.5% sucrose, 0.8% agar (0.6% Gelrite in the case of KOK1169), the compound of the present invention and IAA under continuous white light at 22° C. for 8 days. […] In the test, KOK1101 (30 μM), KOK1160 (30 μM), KOK1165 (30 μM), and KOK1169 (100 μM) were studied.
# Rice (Nipponbare) = assay: Growth test, Rice; conditions: 50 μM, 6th day after transfer, vs DMSO control
# Tomato (Momotaro) = assay: Growth test, Tomato; conditions: 100 μM, 6th day after transfer, vs DMSO control
# [1] = tested on: Physcomitrella patens subsp. patens; assay: Growth test, Physcomitrella patens subsp. patens; conditions: 100 μM, 7th day after transfer, vs DMSO control
# Lettuce = assay: Growth test, Lettuce; conditions: 30 μM, 6 days
# Experimental: Lettuce was cultured in a plate vertically set and using ½ MS medium containing 1.5% sucrose, 0.8% agar and KOK1101 (30 μM) under continuous white light at 25° C. for 6 days.
# [2] = compound 100 μM + IAA 10 nM, 0.6% Gelrite
structure (smiles),measurement,setting,value
NOC(Cc1cccc(Cl)c1)C(=O)O (centres unmarked) [KOK 1187],Note (morphology),Tobacco,Auxin-excess like morphology
COC(=O)[C@H](Cc1cccc2ccccc12)ON1C(=O)c2ccccc2C1=O [KOK 1160],"growth of an aerial part, recovery by simultaneous application with IAA",Arabidopsis; compound 30 μM + IAA 10 nM,recovered
same,"main root elongation, recovery by simultaneous application with IAA",Arabidopsis; compound 30 μM + IAA 10 nM,recovered
COC(=O)[C@H](Cc1ccc2ccccc2c1)ON1C(=O)c2ccccc2C1=O [KOK 1165],"growth of an aerial part, recovery by simultaneous application with IAA",Arabidopsis; compound 30 μM + IAA 10 nM,recovered
same,"main root elongation, recovery by simultaneous application with IAA",Arabidopsis; compound 30 μM + IAA 10 nM,recovered
NO[C@@H](Cc1cccc2ccccc12)C(=O)O [KOK 1167],Note (morphology),Tobacco,Auxin-excess like morphology
NO[C@@H](Cc1ccc2ccccc2c1)C(=O)O [KOK 1169],"growth of an aerial part, recovery by simultaneous application with IAA",Arabidopsis; [2],recovered
same,"main root elongation, recovery by simultaneous application with IAA",Arabidopsis; [2],recovered
COC(=O)[C@H](Cc1ccc2ccccc2c1)ON [KOK 1168],growth of seedling,Rice (Nipponbare),remarkably inhibited
same,growth of seedling,Tomato (Momotaro),remarkably inhibited
same,differentiation into forage,[1],inhibited
same,growth of protonemata,[1],remarkably inhibited
COC(=O)[C@H](Cc1ccccc1)ON1C(=O)c2ccccc2C1=O [KOK 1101],"main root elongation, recovery by simultaneous application with IAA",Arabidopsis; compound 30 μM + IAA 10 nM,recovered
same,"growth of an aerial part, recovery by simultaneous application with IAA",Arabidopsis; compound 30 μM + IAA 100 nM,recovered
same,growth of the aerial part,Lettuce,Apparent growth inhibition
same,main root elongation (underground part),Lettuce,promotion
same,root hair formation (underground part),Lettuce,inhibition
